We go through two compounds from PMC5622107, “Small molecule inhibition of cGAS reduces interferon expression in primary macrophages from autoimmune mice” (Nature Communications, 2017).

Test [1] has as its target T1, m-cGAS (Mus musculus, UniProt Q8C6L5).
T1 construct: recombinant full-length mouse cGAS in reaction buffer; His6-SUMO (N, cleaved yes); made in house; host or cells: E. coli BL21(DE3) RIL
The test can be described thus: Kinetics of m-cGAS in the presence of RU.365 (RF-MS). The test is classed as biochemical. On the procedure:
Kinetics parameters of cGAMP formation were determined in the reaction mixtures carried out in 20 μl volumes in 384 small volume deep well polypropylene plates. The final concentration of m-cGAS enzyme and dsDNA were 60 nM and 300 nM, respectively. To determine if RU.365 was competitive against ATP and/or GTP, different concentrations of RU.365 ranging from 0.8 µM to 6.3 µM were tested, keeping one substrate fixed at 300 µM while varying the other one. Apparent K m ^app and apparent V max ^app values were also calculated in the presence and absence of the small molecule. RU.365 was diluted by half in DMSO for a total of four dilutions where the highest final concentration in the assay was 6.3 μM. Ten microliters of reaction buffer composed of 20 mM Tris-HCl pH 7.4, 150 mM NaCl, 5 mM MgCl2, and 0.01% Tween-20 were dispensed per well using a Thermo Multidrop Combi dispenser (Thermo Scientific). The liquid was collected at the well bottom by centrifugation for 30 s at 180×g. In all, 0.1 μl of RU.365 serially diluted in DMSO were dispensed with a Janus 384 MDT NanoHead (PerkinElmer).
Each reaction containing a variable substrate concentration was performed in a different plate. A separate column containing different amounts of cGAMP was also included in each plate in order to construct the calibration curve and calculate the µmoles of product formed. Twenty different master mix solutions were prepared in reaction buffer supplemented with 2 mM DTT and 1.2 µM dsDNA. Of these, Ten master mix solutions were prepared with different concentrations of GTP ranging from 2.36 µM to 1.2 mM while keeping the concentration of ATP fixed at 1.2 mM and vice versa for the other 10 master mix solutions. Five microliters of these solutions with variable substrate concentration were added for each reaction. Finally, the reaction was started by adding 5 μl of 0.24 μM recombinant full-length mouse cGAS in reaction buffer supplemented with 2 mM DTT to each well of the plate followed by centrifugation for 30 s at 180×g and incubation for 120 min at room temperature. The reaction was stopped by addition of 60 μl of 0.5% (v/v) formic acid per well. The plates were centrifuged for 30 s at 180×g and sealed with a Velocity11 PlateLoc thermal plate sealer. To calculate IC50 log (inhibitor) vs. response, a variable slope non-linear fit from GraphPad Prism (7.01) was used, using three replicate experiments; error bars represent SD. The kinetics parameters were obtained fitting the curves to an allosteric sigmoidal nonlinear fit using the same software.

Test [2] relates to RAW KO-cGAS reporter cells. The test can be described thus: RAW KO-cGAS reporter cells stimulated with cGAMP. The test is classed as cell-based, mouse. The protocol:
The sequence and annealing conditions of the dsDNA used is described above. Typically, 0.4 µg or 0.6 µg of dsDNA was used to stimulate RAW-Lucia ISG-KO-TREX1/ISG-KO-cGAS or RAW-Lucia ISG cells, respectively, which equated to 90% of maximal luciferase activity observed. dsDNA stimulation of RAW macrophages and subsequent luciferase measurements were performed with or without the addition of small molecules at indicated concentrations in each figure, or with DMSO as vehicle control. For the dose curve experiments, serial dilutions of inhibitors were applied to 6.7 × 10^5 cells, plated in 24-well dishes, and co-stimulated with 0.4 µg of dsDNA. In subsequent experiments using inhibitors in RAW cells, the small molecules were used at concentrations representing the derived EC75 values, while co-stimulated with one of the following: 0.4 µg dsDNA, 50 nM 5′ppp-HP20 hairpin RNA (a kind gift from Dr Anna Pyle, Yale University; sequence located in Supplementary Table 5), 10 µM cGAMP, or 100 U ml^−1 murine recombinant Ifnb (R&D Systems). dsDNA was transfected using Lipofectamine LTX. 5′ppp-HP20 RNA was transfected using Lipofectamine 2000. Cells were harvested 24 h post-transfection, washed with PBS, and lysed in 1× Luciferase Cell Lysis Buffer (Pierce).

Test [3] relates to BMDM cells from Trex1 −/− mice. In words: IFNB1 expression by qRT-PCR in BMDMs from Trex1 −/− mice. In kind it is cell-based, mouse. Particulars: 24 h treatment at IC50, qRT-PCR. An excerpt:
C57BL/6 wild type and Trex1 ^−/− offspring from Trex1 ^+/− crosses (a kind gift from Dr Dan Stetson, University of Washington) were harvested at 6–8 weeks of age. Femurs and tibias were removed from age- and sex-matched mice. The ends were clipped and marrow pushed from bones via syringe. Clumps were broken apart via pipetting, rinsed, and pelleted in PBS, passed through a cell strainer, and plated in seven 100 mm petri dishes per mouse. Cells were matured in media described under the methods for cell lines with an additional 10 ng ml^−1 M-CSF (for a total of 20 ng ml^−1 M-CSF during the maturation period). On Day 7, cells were counted and re-plated at 5 × 10^5 cells ml^−1 in 100 mm petri dishes. BMDMs were maintained by adding an equal volume of media to each dish every 2 days after harvesting and performing a complete media change every 4 days after harvesting. IACUC protocols for humane termination of mice for Vanderbilt University were strictly followed.
BMDMs were incubated in the presence of DMSO or the various inhibitors, then harvested 24 h later. RNA was extracted using Trizol and chloroform. […] Real-time PCR against murine Actb1 and IFNB1 (see Supplementary Table 5 for primer sequences used) was carried out and the data was analyzed as previously described in the method section for cytokine analysis in RAW macrophages.

Setting [4] is: varying ATP, GTP fixed, RU.365 0.8 µM.
[5] abbreviates: varying ATP, GTP fixed, RU.365 1.6 µM.
The mark [6] stands for this setting: varying ATP, GTP fixed, RU.365 3.2 µM.
Setting [7] is: varying ATP, GTP fixed, RU.365 6.3 µM.
Where [8] appears, read: varying GTP, ATP fixed, RU.365 0.8 µM.
Where [9] appears, read: varying GTP, ATP fixed, RU.365 1.6 µM.
The mark [10] stands for this setting: varying GTP, ATP fixed, RU.365 3.2 µM.
The mark [11] stands for this setting: varying GTP, ATP fixed, RU.365 6.3 µM.

T1 sequence (Q8C6L5 whole entry): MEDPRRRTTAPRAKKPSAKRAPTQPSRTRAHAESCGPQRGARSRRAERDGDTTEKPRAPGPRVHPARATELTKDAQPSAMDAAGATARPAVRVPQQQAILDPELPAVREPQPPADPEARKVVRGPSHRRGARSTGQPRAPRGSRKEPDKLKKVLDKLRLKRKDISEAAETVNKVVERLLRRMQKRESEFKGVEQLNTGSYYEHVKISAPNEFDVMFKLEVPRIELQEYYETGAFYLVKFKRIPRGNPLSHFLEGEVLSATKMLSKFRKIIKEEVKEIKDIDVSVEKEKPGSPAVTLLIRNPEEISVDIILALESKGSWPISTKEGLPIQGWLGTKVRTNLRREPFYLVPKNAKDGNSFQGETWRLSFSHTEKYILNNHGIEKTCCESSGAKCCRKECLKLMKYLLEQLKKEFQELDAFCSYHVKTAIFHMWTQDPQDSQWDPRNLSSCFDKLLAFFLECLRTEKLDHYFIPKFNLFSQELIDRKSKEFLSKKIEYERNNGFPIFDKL

For orientation: kcat means the maximal rate divided by the concentration of active sites. As for `Cc1nn(-c2nc3ccccc3[nH]2)c(O)c1C1OC(=O)c2ccccc21` (stereo not shown) [RU166365], the “mechanism of inhibition against ATP or GTP” value in test [1] is listed as “non-competitive inhibitor”. The Kmapp in test [1] (setting [4]) was determined as 109.1 µM; in test [1] (setting [5]), 115.5 µM; in test [1] (setting [6]) it was 113.4 µM; in test [1] (setting [7]), 107.3 µM; in test [1] (setting [8]) it was 77.8 µM; in test [1] (setting [9]), 89.7 µM. Besides, the results for the Kmapp in test [1] (setting [10]) and in test [1] (setting [11]) were 79.7 µM and 89.4 µM, respectively. Further, the kcat in test [1] (setting [4]) amounted to 17 min⁻¹; in test [1] (setting [5]), 14 min⁻¹; in test [1] (setting [6]), 9.1 min⁻¹; in test [1] (setting [7]), 4.3 min⁻¹; in test [1] (setting [8]), 17 min⁻¹; in test [1] (setting [9]), 14 min⁻¹. For the same compound, the values for the kcat in test [1] (setting [10]) and in test [1] (setting [11]) were 9.1 min⁻¹ and 4.3 min⁻¹, respectively.
Consider `Cc1nn(-c2nc3ccc(Cl)c(Cl)c3[nH]2)c(O)c1C1OC(=O)c2ccccc21` (stereo not shown) [RU320521, 3-[1-(6,7-dichloro-1H-benzimidazol-2-yl)-5-hydroxy-3-methyl-pyrazol-4-yl]-3H-isobenzofuran-1-one], for which the “inhibition of reporter activity” value in test [2] is listed as “did not show any significant inhibition of reporter activity”. Further, the IFNB1 expression result in test [3] was “reduced IFNB1 expression”.
